{"source": "patent EP4603099A1", "about": "(priority 2022, dated 2024)", "key": {"[1]": {"tested_on": "IAV (H1N1, seasonal isolated strain in 2019)", "format": "cell-based, influenza A virus", "settings": "human lung explant, 10 µM TFMT; compared with untreated sample"}, "[2]": {"tested_on": "IAV-GFP SC35M strain", "format": "cell-based, influenza A virus"}, "[3]": {"tested_on": "IBV", "experiment": "qRT-PCR analysis of IBV RNA in infected A549 cells", "format": "cell-based, influenza B virus", "method": "(§1) The cells were recovered with TRIzol (Invitrogen, 15596), and RNA was extracted according to the manufacturer's protocol. The cDNA was purified using a High-Capacity cDNA Reverse Transcription Kit (Applied Biosystems, 43688). Quantitative reverse transcription polymerase chain reaction (qRT-PCR) was carried out using a Fast SYBR Green Master Mix (Applied Biosystems, 4385614) or a TaqMan Fast Advanced Master Mix (Applied Biosystems, 4444558)."}, "[4]": {"experiment": "in vivo toxicity in mouse, nasal cavity inoculation, change in body weight", "settings": "2 mg/kg intranasally on day 0 and day 1, C57BL/6 mice", "method": "Next, the in vivo toxicity in the mouse was evaluated by carrying out nasal cavity inoculation once a day for two days.\nTFMT or tubercidin at 2 mg/kg was intranasally administered to C57BL/6 mice on the 0th day of infection and the 1st day of infection (indicated by arrows in the figure)."}, "[5]": {"tested_on": "A549 cells"}, "[6]": {"target": "T1, human Mtr1 (Homo sapiens, UniProt Q8N1G2)", "T1 sequence (Q8N1G2 1-835)": "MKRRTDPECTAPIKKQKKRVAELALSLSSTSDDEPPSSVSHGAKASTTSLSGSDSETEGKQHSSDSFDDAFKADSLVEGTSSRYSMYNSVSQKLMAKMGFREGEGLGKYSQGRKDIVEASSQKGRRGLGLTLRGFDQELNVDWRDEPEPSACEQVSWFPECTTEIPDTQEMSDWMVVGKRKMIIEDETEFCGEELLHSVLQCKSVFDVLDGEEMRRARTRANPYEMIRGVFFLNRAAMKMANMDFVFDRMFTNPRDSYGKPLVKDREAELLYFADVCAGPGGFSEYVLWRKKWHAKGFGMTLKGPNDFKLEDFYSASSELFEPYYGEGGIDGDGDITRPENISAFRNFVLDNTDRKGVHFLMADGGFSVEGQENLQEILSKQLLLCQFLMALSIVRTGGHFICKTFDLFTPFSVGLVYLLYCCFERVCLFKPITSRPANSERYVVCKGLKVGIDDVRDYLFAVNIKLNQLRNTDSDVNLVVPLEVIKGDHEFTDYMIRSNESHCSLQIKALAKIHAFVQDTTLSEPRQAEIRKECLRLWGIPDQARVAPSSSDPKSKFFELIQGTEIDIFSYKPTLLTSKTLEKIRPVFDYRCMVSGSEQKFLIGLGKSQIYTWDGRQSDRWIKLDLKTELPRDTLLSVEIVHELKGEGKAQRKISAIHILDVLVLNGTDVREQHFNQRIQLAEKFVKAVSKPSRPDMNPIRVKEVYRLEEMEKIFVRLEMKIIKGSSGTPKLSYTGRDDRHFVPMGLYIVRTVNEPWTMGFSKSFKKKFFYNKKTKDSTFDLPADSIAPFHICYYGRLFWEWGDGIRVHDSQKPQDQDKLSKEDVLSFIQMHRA", "experiment": "thermal shift assay using SYPRO Orange", "settings": "ribavirin as control"}, "[7]": {"target": "T1, human Mtr1", "experiment": "methyltransferase (MTase) activity assay", "settings": "0.8 µM human MTr1, cap0 RNA, SAM[3H], 37°C overnight", "quoted_text": "The synthesized RNA, 3'-O-Me-m7GpppGpG (pN27), was used in a methyltransferase activity assay of human MT r1.\nThe reaction sample was purified using a mini quick oligo column (Roche, 11814397001), and free SAM [3H] was removed. The purified sample was diluted with ULTIMA GOLD (PerkinElmer, 6013329), and the methyltransferase activity was measured in terms of the number of disintegrations per minute (DPM) by using a scintillation counter LS6500 (Beckman Coulter)."}, "[8]": {"tested_on": "IAV PR8 strain", "format": "cell-based, influenza A virus"}, "[9]": {"tested_on": "HAZV", "format": "cell-based, Hazara virus"}, "[10]": {"tested_on": "STBV", "experiment": "qRT-PCR analysis of STBV RNA in infected A549 cells", "format": "cell-based, Soft tick bunya virus", "settings": "A549, m.o.i. 0.1, 24 hours", "method": "as §1"}, "[11]": {"tested_on": "HAZV", "format": "cell-based, Hazara virus", "remark": "listed apart in the source"}, "[12]": {"tested_on": "IAV WSN", "experiment": "mouse in vivo IAV infection model, qRT-PCR of IAV RNA in lung tissue", "set-up": "species or system C57BL/6 mice", "settings": "2 mg/kg intranasally on day 0 and day 1; 2 days after infection, 5 × 10^3 PFU", "method": "As shown in the figure, the IAV WSN and TFMT were introduced into the nasal cavity. TFMT was added on the 0th day of the IAV WSN infection and the 1st day of the IAV WSN infection.\nqRT-PCR analysis (5 × 10^3 PFU) of IAV RNA in the lung tissue of the IAV-infected C57BL/6 mice on the 2nd day was carried out. TFMT of 2 mg/kg was intranasally administered on the 0th day of infection and the 1st day of infection. […] (*p < 0.05, **p < 0.01)."}, "[13]": {"tested_on": "IFN-β RNA", "experiment": "qRT-PCR analysis of IFN-β RNA and other host RNAs in A549 cells", "format": "cell-based, human", "settings": "A549 infected or not with IAV PR8 (m.o.i. 1), 10 µM TFMT", "method": "as §1\n1 was analyzed in the presence or absence of 10 µM TFMT.\nEach RNA indicated in the figure at the indicated moment at the m.o.i. of 1, in A549 cells which had been infected or not infected with the IAV PR8 strain in the presence or absence of 10 µM TFMT, was analyzed."}, "[14]": {"tested_on": "IAV PR8 strain"}, "[15]": {"settings": "NHBE cells, m.o.i. 1, 24 hours, […]"}}, "note": "“Also recorded” adds a separate entry of the source.", "data": [{"compound": "Nc1ncnc2c1c(C(F)(F)F)cn2[C@@H]1O[C@H](CO)[C@@H](O)[C@H]1O", "note": "[TFMT, trifluoromethyl tubercidin]", "values": [{"measurement": "virus titer, second figure printed in the same sentence ('and was 100 to 1,000')", "setting": "[1]", "result": "100 to 1,000"}]}, {"compound": "Nc1ncnc2c1ccn2[C@@H]1O[C@H](CO)[C@@H](O)[C@H]1O", "note": "[tubercidin]", "values": [{"measurement": "anti-IAV activity, rank among 12 commercially available compounds (GFP level)", "setting": "[2]", "result": "identified as the most effective compound"}, {"measurement": "inhibition of IAV-GFP (GFP level), dose dependence", "setting": "[2]", "result": "the inhibition depended on the dose at 0.1 to 100 µM"}, {"measurement": "effect on IBV infection", "setting": "[3]; A549, compound added 3 hours before infection (FIG. 19(d))", "result": "had an effect on the IBV infectious disease"}, {"measurement": "change in body weight", "setting": "[4]", "result": "caused a significant body weight loss"}, {"measurement": "toxicity (WST-8)", "setting": "[5]; A549 infected with IAV-GFP, 19 hours, tubercidin 0.1 to 100 µM", "result": "the toxicity was slight"}, {"measurement": "binding to recombinant MTr1 (thermal shift)", "setting": "[6]", "result": "directly binds to the recombinant MTr1"}, {"measurement": "MTase activity of the recombinant MTr1 protein", "setting": "[7]", "result": "inhibits the MTase activity of the recombinant MTr1 protein in a dosage-dependent manner"}]}, {"compound": "trifluoromethyl tubercidin [TFMT]", "values": [{"measurement": "IAV replication (GFP level), time of addition", "setting": "[2]", "result": "significantly inhibited IAV replication; also recorded: the effect was reduced or could not be confirmed"}, {"measurement": "inhibition at the lowest concentration, secondary screening step 3", "setting": "[2]", "result": "identified as the most effective compound"}, {"measurement": "synergistic effect with amantadine (GFP relative fluorescence units, combination index)", "setting": "[2]; combination of TFMT and amantadine, […]", "result": "exhibited a synergistic effect"}, {"measurement": "synergistic effect with BXM (GFP relative fluorescence units, combination index)", "setting": "[2]; combined treatment of TFMT and BXM, […]", "result": "a strong synergistic effect was observed"}, {"measurement": "IC50", "setting": "[2]; read-out: IC50 for IAV infection", "result": 300, "unit": "nM"}, {"measurement": "antiviral activity against IAV (virus RNA, qRT-PCR)", "setting": "[8]; A549, m.o.i. 1, 24 hours", "result": "exhibits an antiviral activity"}, {"measurement": "dependence of the effect on IAV replication on innate immune factors (IAV RNA segment 7)", "setting": "[8]; A549, m.o.i. 1, 24 hours (FIG. 29)", "result": "independent of the IFIT1-dependent isolation of RNA or RIG-I/MDA5 signaling"}, {"measurement": "antiviral activity against IBV (virus RNA, qRT-PCR)", "setting": "[3]; A549, m.o.i. 1, 24 hours", "result": "exhibits an antiviral activity"}, {"measurement": "antiviral activity against HAZV (virus RNA, qRT-PCR)", "setting": "[9]", "result": "does not exhibit an antiviral activity"}, {"measurement": "antiviral activity against STBV (virus RNA, qRT-PCR)", "setting": "[10]", "result": "does not exhibit an antiviral activity"}, {"measurement": "HAZV replication (HAZV RNA, qRT-PCR)", "setting": "[11]", "result": "did not inhibit HAZV replication"}, {"measurement": "change in body weight", "setting": "[4]", "result": "does not cause body weight loss or cell cytotoxicity"}, {"measurement": "IAV NP level in the mouse lung (IAV RNA segment 5, qRT-PCR)", "setting": "[12]", "result": "significantly reduced"}, {"measurement": "PB2 mRNA level in the mouse lung (IAV RNA segment 1, qRT-PCR)", "setting": "[12]", "result": "significantly reduced"}, {"measurement": "induction of IFN-β or antiviral ISG (qRT-PCR)", "setting": "[13]", "result": "did not induce IFN-β or antiviral ISG"}, {"measurement": "cell cytotoxicity of combined treatment (WST-8)", "setting": "[5]", "result": "without cell cytotoxicity"}, {"measurement": "in vitro toxicity (WST-8 cell survival rate assay)", "setting": "[5]; A549, within the effective concentration range", "result": "no significant in vitro toxicity was confirmed within the effective concentration range"}, {"measurement": "cell cytotoxicity in NHBE cells (histological analysis)", "setting": "[14]", "result": "without cell cytotoxicity"}, {"measurement": "RNA level of IAV (segment 7, qRT-PCR)", "setting": "[14]; [15]", "result": "significantly reduced in a dosage-dependent manner"}, {"measurement": "protein level of IAV (Western blot)", "setting": "[14]; [15]", "result": "significantly reduced in a dosage-dependent manner"}, {"measurement": "IAV NP level (immunostaining)", "setting": "[14]; NHBE cells, m.o.i. 2, 24 hours, 10 µM TFMT", "result": "significantly decreased"}, {"measurement": "MTase activity of the recombinant MTr1 protein", "setting": "[7]", "result": "inhibited"}]}]}
